Experimental findings from ChEMBL document CHEMBL4138283, “Cyclizidine-Type Alkaloids from Streptomyces sp. HNA39” (J Nat Prod, 2018) are described below.

One assay concerns PC-3. Kind of assay: Cytotoxicity against human PC3 cells by sulforhodamine B assay. The assay is classed as functional, cell-based.
A further assay has as its system HCT-116. Kind of assay: Cytotoxicity against human HCT116 cells by sulforhodamine B assay. The assay is classed as functional, cell-based.
Assay [1] deals with Rho-associated protein kinase 2 (Homo sapiens, UniProt O75116). Put plainly: Inhibition of ROCK2 (unknown origin) using SKT S2 as substrate measured after 30 mins by HTRF assay.

The structures appear in SMILES notation.

Chain of Rho-associated protein kinase 2 (O75116 whole entry): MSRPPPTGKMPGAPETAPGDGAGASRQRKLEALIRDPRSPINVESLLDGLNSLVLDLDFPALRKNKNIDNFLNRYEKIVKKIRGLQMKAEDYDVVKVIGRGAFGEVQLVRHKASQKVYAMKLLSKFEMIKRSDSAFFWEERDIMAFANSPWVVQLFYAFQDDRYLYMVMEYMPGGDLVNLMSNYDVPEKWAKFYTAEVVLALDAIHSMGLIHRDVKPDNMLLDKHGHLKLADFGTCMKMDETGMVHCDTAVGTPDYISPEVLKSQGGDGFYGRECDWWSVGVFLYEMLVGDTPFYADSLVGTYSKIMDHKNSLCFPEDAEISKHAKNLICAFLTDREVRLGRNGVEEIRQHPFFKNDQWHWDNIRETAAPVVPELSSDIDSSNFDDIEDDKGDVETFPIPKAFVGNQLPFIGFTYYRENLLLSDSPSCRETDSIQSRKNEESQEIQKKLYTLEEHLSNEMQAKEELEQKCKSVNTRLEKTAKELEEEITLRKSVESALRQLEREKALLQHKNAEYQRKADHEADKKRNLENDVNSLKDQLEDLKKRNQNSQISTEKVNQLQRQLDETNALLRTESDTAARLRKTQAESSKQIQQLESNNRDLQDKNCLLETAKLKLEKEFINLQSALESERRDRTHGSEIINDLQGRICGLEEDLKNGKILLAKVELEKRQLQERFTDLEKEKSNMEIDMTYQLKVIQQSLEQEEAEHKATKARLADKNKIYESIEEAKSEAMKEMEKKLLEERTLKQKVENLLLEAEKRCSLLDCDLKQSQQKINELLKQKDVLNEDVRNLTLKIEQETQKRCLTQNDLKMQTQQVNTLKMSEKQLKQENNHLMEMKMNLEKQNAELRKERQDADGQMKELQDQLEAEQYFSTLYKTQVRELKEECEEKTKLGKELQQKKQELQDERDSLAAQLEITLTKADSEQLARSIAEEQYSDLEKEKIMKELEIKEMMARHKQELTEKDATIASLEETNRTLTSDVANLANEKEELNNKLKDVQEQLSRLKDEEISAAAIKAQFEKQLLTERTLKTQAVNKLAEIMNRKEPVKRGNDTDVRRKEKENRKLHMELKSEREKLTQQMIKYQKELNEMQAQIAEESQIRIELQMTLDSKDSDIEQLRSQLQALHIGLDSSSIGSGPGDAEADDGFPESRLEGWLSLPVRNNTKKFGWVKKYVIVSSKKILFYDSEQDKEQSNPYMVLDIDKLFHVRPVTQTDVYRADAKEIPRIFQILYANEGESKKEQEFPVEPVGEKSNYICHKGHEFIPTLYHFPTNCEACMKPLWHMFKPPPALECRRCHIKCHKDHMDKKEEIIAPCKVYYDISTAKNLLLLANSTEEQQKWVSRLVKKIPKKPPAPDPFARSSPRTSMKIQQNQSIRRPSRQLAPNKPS

For the molecule `CC(/C=C/C1CC1)=C\[C@H]1[C@H](O)[C@@](C)(O)c2c(O)ccc[n+]21`, the figures for the half-inhibitory concentration (IC50) (in the assay with PC-3; with HCT-116; in assay [1]) were above 40 µM, above 40 µM and 27 µM, respectively.
As to `C/C(=C\C=C\CCO)C[C@H]1[C@H](O)[C@@](C)(O)[C@H]2CCCCN12`, the half-inhibitory concentration (IC50) is above 40 µM in the assay on PC-3, above 40 µM with HCT-116 and above 100 µM in assay [1].
As for `CC(/C=C/C1CC1)=C\[C@H]1[C@H](O)[C@@](C)(O)[C@H]2[C@@H]3O[C@@H]3CCN12`, the values for the IC50 (in the assay on PC-3; in the assay with HCT-116; in assay [1]) were 23 µM, 28 µM and above 100 µM, respectively.
For `C/C(=C\C=C\CCO)C[C@H]1[C@H](O)[C@@](C)(O)[C@H]2[C@H](O)[C@@H](Cl)CCN12`, the IC50 is 17 µM with PC-3, above 40 µM with HCT-116 and 42 µM in assay [1].
As to `CC(/C=C/C1CC1)=C\[C@H]1[C@H](O)[C@@](C)(O)[C@H]2[C@H](O)[C@@H](O)CCN12`, the values for the IC50 (in the assay with PC-3; in the assay on HCT-116; in assay [1]) were 0.52 µM, 8.3 µM and 7 µM, respectively.
The molecule `CN[C@@H]1C[C@H]2O[C@@](C)([C@@H]1OC)n1c3ccccc3c3c4c(c5c6ccccc6n2c5c31)C(=O)NC4` [STAUROSPORINE] registered an IC50 in the assay on PC-3 of 0.017 µM.
For `CC(/C=C/C1CC1)=C\[C@H]1[C@H](O)[C@@](C)(O)c2cccc[n+]21`, the IC50 in the assay on PC-3 is above 40 µM; in the assay on HCT-116, above 40 µM; in assay [1], above 100 µM.
As to `C/C(=C/C=C/CCO)C[C@H]1[C@H](O)[C@@](C)(O)[C@H]2[C@H](O)[C@@H](Cl)CCN12`, the IC50 is above 40 µM in the assay with PC-3, above 40 µM in the assay on HCT-116 and 39 µM in assay [1].
Take `CC(/C=C/C1CC1)=C\[C@H]1[C@H](O)[C@@](C)(O)[C@H]2CCCCN12`: the IC50 was above 40 µM in the assay with PC-3, above 40 µM with HCT-116 and above 100 µM in assay [1].
`CC(/C=C/C1CC1)=C\[C@H]1[C@H](O)[C@@](C)(O)[C@H]2[C@H](O)[C@@H](Cl)CCN12`: the IC50 was 33 µM in the assay on PC-3, 40 µM in the assay with HCT-116 and above 100 µM in assay [1].
